Results: PMC3961306, “Comparison of the Cancer Gene Targeting and Biochemical Selectivities of All Targeted Kinase Inhibitors Approved for Clinical Use” (PLoS ONE, 2014)

Key:
Assay in all cases: Kinase profiling in a biochemical assay panel (mobility shift assays and ELISA), %-inhibition at 1 μM; selectivity entropy
[1] = target: panel of more than 300 wild-type and mutant kinases (313 kinase panel) (Homo sapiens, UniProt P19784)
[2] = target: T1, panel of more than 300 wild-type and mutant kinases (313 kinase panel) (Homo sapiens, UniProt Q08881); details: kinase ITK; compound at 1 μM
T1 sequence (Q08881 1-620): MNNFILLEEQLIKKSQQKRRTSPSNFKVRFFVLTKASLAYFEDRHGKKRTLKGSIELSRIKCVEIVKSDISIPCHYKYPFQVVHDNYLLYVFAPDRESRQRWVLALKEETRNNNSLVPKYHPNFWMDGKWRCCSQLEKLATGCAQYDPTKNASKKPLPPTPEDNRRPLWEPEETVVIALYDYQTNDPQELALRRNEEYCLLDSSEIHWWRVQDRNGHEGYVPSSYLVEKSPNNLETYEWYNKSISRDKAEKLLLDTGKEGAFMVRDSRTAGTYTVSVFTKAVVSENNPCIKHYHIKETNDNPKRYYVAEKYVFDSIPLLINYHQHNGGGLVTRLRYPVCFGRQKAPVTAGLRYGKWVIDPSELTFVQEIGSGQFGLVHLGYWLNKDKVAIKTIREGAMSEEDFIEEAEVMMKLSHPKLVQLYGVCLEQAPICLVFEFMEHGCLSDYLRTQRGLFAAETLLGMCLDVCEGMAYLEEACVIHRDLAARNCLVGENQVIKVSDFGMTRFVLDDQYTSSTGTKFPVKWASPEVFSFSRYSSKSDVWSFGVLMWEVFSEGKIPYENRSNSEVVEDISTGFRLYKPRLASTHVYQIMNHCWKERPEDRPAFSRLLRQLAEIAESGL

[3] = target: panel of more than 300 wild-type and mutant kinases (313 kinase panel) (Homo sapiens, UniProt Q15418); details: kinase RSK1; 1 μM
[4] = target: T2, panel of more than 300 wild-type and mutant kinases (313 kinase panel) (Homo sapiens, UniProt O60285)
T2 sequence (O60285 1-661): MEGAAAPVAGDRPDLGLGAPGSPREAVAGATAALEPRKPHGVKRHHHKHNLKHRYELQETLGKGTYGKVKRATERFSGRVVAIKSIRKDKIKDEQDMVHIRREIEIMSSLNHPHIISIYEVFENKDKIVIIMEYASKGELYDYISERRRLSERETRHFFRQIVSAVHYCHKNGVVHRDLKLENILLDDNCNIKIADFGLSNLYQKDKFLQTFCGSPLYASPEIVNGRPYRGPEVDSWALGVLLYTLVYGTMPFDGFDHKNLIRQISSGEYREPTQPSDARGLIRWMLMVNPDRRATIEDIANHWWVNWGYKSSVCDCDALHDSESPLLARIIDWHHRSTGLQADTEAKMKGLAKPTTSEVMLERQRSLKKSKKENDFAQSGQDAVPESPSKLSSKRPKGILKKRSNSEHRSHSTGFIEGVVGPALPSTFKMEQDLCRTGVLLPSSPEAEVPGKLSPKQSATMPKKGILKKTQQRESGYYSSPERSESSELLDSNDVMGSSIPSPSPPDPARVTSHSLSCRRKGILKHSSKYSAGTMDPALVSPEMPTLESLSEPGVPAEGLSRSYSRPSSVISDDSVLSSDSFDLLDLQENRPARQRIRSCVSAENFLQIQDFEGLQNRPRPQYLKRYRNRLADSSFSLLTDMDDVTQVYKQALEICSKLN

[5] = target: panel of more than 300 wild-type and mutant kinases (313 kinase panel) (Homo sapiens, UniProt P08069); details: kinase IGF1R; compound at 1 μM
[6] = target: T3, panel of more than 300 wild-type and mutant kinases (313 kinase panel) (Homo sapiens, UniProt Q8TF76); details: kinase Haspin; compound at 1 μM
T3 sequence (Q8TF76 1-798): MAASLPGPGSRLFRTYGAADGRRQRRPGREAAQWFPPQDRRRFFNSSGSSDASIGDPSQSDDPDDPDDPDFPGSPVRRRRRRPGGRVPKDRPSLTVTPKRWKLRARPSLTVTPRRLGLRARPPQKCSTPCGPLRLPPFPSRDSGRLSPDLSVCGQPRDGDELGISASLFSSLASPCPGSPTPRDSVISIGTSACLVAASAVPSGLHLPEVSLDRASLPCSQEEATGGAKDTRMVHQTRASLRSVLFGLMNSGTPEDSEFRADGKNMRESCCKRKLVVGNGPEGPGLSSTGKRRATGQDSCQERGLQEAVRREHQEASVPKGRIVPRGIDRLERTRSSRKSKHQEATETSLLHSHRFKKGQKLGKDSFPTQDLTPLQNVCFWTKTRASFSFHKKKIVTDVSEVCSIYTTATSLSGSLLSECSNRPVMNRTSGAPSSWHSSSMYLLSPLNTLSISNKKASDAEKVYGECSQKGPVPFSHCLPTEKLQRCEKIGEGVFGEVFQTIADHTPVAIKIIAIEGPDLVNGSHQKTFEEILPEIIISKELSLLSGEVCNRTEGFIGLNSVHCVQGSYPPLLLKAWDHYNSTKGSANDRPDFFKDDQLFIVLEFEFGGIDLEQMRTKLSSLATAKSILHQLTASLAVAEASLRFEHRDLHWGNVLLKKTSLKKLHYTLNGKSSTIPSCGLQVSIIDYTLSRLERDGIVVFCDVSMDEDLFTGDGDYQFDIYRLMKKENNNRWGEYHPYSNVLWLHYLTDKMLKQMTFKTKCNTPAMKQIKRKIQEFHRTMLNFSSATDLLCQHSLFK

[7] = target: panel of more than 300 wild-type and mutant kinases (313 kinase panel) (Homo sapiens, UniProt P07949, S891A); details: kinase RET(S891A); 1 μM
panel of more than 300 wild-type and mutant kinases (313 kinase panel) (Homo sapiens, UniProt P07949, S891A), sequence (P07949 29-1114 S891A): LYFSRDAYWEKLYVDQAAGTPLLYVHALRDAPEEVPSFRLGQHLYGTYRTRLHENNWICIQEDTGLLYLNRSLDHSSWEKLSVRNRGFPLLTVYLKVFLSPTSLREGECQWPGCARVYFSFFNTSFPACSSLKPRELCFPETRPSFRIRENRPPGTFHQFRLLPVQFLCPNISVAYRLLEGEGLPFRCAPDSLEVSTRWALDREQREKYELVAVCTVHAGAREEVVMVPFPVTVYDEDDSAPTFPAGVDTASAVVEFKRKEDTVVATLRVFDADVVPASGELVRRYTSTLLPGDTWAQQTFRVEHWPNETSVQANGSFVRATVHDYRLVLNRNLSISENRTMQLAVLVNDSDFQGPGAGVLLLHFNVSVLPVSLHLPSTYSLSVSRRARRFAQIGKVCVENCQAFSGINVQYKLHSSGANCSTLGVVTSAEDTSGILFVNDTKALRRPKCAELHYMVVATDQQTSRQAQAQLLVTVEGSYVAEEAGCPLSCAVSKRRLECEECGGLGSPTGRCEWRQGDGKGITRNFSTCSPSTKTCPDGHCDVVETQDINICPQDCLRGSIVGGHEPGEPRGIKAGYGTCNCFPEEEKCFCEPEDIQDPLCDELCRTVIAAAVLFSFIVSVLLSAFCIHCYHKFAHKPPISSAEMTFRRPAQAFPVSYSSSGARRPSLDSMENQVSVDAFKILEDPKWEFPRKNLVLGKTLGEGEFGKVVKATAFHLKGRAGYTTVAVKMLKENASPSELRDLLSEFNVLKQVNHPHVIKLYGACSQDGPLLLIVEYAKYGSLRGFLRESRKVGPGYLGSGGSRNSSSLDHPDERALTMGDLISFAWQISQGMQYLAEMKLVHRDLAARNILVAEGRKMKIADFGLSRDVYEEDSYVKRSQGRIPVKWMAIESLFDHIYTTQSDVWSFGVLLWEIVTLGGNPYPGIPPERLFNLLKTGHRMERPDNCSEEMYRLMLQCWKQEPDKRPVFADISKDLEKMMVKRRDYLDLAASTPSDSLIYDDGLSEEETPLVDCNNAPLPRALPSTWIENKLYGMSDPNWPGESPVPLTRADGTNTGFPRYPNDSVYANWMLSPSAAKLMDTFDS

[8] = target: panel of more than 300 wild-type and mutant kinases (313 kinase panel) (Homo sapiens, UniProt P80192); details: kinase MLK1; 1 μM
panel of more than 300 wild-type and mutant kinases (313 kinase panel) (Homo sapiens, UniProt P80192), sequence (P80192 whole entry, change not shown): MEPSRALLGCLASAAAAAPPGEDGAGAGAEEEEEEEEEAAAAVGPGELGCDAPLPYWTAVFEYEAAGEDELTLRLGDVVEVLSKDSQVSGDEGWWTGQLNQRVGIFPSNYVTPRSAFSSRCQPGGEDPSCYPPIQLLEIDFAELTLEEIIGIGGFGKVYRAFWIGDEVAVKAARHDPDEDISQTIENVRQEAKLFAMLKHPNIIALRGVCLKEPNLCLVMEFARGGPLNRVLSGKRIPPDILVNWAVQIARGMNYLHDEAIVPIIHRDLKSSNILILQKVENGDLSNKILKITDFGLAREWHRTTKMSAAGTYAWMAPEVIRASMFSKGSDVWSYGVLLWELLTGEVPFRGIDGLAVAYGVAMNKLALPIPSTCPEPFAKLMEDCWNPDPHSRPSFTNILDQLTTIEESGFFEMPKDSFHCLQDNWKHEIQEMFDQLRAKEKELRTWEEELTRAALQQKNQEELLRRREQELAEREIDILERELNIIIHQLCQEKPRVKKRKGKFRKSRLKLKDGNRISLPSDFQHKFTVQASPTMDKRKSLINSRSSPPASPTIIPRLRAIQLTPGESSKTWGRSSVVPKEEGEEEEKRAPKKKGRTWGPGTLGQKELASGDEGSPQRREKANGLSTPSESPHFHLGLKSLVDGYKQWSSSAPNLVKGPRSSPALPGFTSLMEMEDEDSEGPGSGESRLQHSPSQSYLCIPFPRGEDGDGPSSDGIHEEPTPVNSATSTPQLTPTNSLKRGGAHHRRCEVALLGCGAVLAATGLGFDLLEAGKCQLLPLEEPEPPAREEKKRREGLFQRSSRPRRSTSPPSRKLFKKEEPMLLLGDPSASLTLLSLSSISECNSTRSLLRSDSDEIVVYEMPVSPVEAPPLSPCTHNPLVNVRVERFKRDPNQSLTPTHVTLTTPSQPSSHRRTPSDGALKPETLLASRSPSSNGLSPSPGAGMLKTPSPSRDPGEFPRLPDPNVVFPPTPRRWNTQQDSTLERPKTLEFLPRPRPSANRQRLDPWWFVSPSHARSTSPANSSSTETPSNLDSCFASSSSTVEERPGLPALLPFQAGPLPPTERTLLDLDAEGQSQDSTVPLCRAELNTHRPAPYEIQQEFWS

panel of more than 300 wild-type and mutant kinases (313 kinase panel) (Homo sapiens, UniProt P19784), sequence (P19784 whole entry, change not shown): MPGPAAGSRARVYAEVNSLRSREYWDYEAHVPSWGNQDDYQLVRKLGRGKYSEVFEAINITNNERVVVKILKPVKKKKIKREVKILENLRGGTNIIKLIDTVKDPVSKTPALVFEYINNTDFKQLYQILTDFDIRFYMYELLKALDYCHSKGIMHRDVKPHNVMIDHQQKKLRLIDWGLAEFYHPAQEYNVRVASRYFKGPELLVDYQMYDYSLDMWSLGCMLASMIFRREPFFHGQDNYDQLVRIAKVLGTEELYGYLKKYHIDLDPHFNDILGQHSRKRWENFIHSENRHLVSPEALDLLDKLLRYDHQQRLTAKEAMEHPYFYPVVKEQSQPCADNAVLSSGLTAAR

SMILES | %-inhibition, CK2α2/β ([1]; kinase CK2α2/β, 1 μM compound) [%] | %-inhibition of ITK [2] [%] | %-inhibition of RSK1 [3] [%] | %-inhibition of NuaK1 ([4]; kinase NuaK1, 1 μM) [%] | %-inhibition of IGF1R [5] [%] | %-inhibition of Haspin [6] [%] | %-inhibition of RET(S891A) [7] [%] | %-inhibition of MLK1 [8] [%] | %-inhibition, CK2α2/β ([1]; 1 µM) [%] | %-inhibition of NuaK1 ([4]; 1 µM) [%]
CO[C@H]1C[C@@H]2CC[C@@H](C)[C@@](O)(O2)C(=O)C(=O)N2CCCC[C@H]2C(=O)O[C@H]([C@H](C)C[C@@H]2CC[C@@H](OCCO)[C@H](OC)C2)CC(=O)[C@H](C)/C=C(\C)[C@@H](O)[C@@H](OC)C(=O)[C@H](C)C[C@H](C)/C=C/C=C/C=C/1C [everolimus] | -1.28 | -3.61 | -13 | 4.27 | -3.24 | -0.358 | -3 | 5 | – | –
CCN(CC)CCNC(=O)c1c(C)[nH]c(/C=C2\C(=O)Nc3ccc(F)cc32)c1C [sunitinib] | 25 | – | – | – | – | – | – | – | – | –
CC(=O)Nc1cccc(-n2c(=O)n(C3CC3)c(=O)c3c(Nc4ccc(I)cc4F)n(C)c(=O)c(C)c32)c1 [trametinib] | -5.29 | -7.56 | -10 | -0.634 | -10 | 5 | -1.24 | 16 | – | –
O=S(=O)(c1cccc2cnccc12)N1CCCNCC1 [fasudil] | -3.75 | -9 | – | 44 | -13 | 72 | -1.38 | 3.31 | – | –
N#CC[C@H](C1CCCC1)n1cc(-c2ncnc3[nH]ccc23)cn1 [ruxolitinib] | – | 30 | 1.49 | 55 | 1.31 | -6.62 | – | 53 | -7 | –
COc1cc2nccc(Oc3ccc(NC(=O)C4(C(=O)Nc5ccc(F)cc5)CC4)cc3)c2cc1OC [cabozantinib] | 9 | 16 | -7.61 | 7 | 11 | 8 | – | 20 | – | –
CC(C)(C)c1nc(-c2cccc(NS(=O)(=O)c3c(F)cccc3F)c2F)c(-c2ccnc(N)n2)s1 [dabrafenib] | – | 49 | – | 7 | – | 9 | 53 | – | – | –
C[C@@H](Oc1cc(-c2cnn(C3CCNCC3)c2)cnc1N)c1c(Cl)ccc(F)c1Cl [crizotinib] | -10 | 63 | -5 | – | – | 7 | – | 2.82 | – | 99
COc1cc2c(Nc3ccc(Br)cc3F)ncnc2cc1OCC1CCN(C)CC1 [vandetanib] | -7 | 20 | – | 16 | -1.72 | -3.76 | – | 42 | – | –
Cc1ccc(C(=O)Nc2ccc(CN3CCN(C)CC3)c(C(F)(F)F)c2)cc1C#Cc1cnc2cccnn12 [ponatinib] | – | 86 | 32 | 5 | 17 | – | 102 | 29 | – | –
Cc1ccc(Nc2nccc(N(C)c3ccc4c(C)n(C)nc4c3)n2)cc1S(N)(=O)=O [pazopanib] | 0.17 | 28 | 16 | 73 | – | -0.746 | 100 | 90 | – | –
Cc1nc(Nc2ncc(C(=O)Nc3c(C)cccc3Cl)s2)cc(N2CCN(CCO)CC2)n1 [dasatinib] | -4.67 | – | – | – | – | -13 | – | – | – | –
COc1cc(Nc2c(C#N)cnc3cc(OCCCN4CCN(C)CC4)c(OC)cc23)c(Cl)cc1Cl [bosutinib] | – | 13 | – | 84 | 15 | – | 90 | 93 | – | –
